Activity calls are given as the source filed them.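 Rule for the calls: active = at least 15% inhibition at the top concentration together with an EC50 under 10 microM; inactive = the rest.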

One test is described as follows: potency against LAMP-1 externalization in TALL-104 – TALL-104 cells, flow cytometry, CherryPick01, dose response (AID 652101).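 Note: 0% = stimulated DMSO control and 100% = unstimulated control wells.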 The settings on record: TALL-104 lytic granule exocytosis, LAMP-1 flow cytometry; at 15.1 µM (top of the series).
`CCOC(=O)[C@]12Cc3cc(Cl)ccc3[C@H]1N(C1CCCCC1)C(=O)c1cc(OC)ccc12`: the inhibition was 102% (inactive).
Same read-out and setting: the value for `COC(=O)c1ccc(NC(=O)CSc2nc3ccc(N4C(=O)C5C6C=CC(C6)C5C4=O)cc3s2)cc1` (stereo not given) was 92.5% (inactive).

Staying with this test, now noted: TALL-104 lytic granule exocytosis, LAMP-1 flow cytometry; at 15.1 µM (top of the series); stimulated with 1 µM thapsigargin, 50 nM PMA.
On to `OCCN1CCN(CC(O)COc2ccc(C34CC5CC(CC(C5)C3)C4)cc2)CC1` (stereo not given), for which the inhibition was 85.8% (inactive).
Still for that read-out and setting: the value for `CN(C)CCCN(C(=O)CCSc1ccccc1)c1nc2cc3c(cc2s1)OCO3` was 90.1% (inactive); that for `COc1ccc([N+](=O)[O-])cc1Nc1c2ccccc2nc2ccccc12` was 79.8% (inactive).
Still for that read-out and setting: the value for `Cc1ccc(Cl)cc1-c1cc(C(=O)NCc2ccc(C(F)(F)F)cc2)[nH]n1` was 103% (inactive); that for `CN(C)CCCNC(=S)NCC(c1ccc(Cl)cc1Cl)c1c[nH]c2ccccc12` (stereo not given) was 92.7% (inactive); that for `CSc1cccc(NC(=S)N(CCCN2CCCC2)Cc2cccn2Cc2ccc(Cl)cc2)c1` was 65.2% (inactive).
Same read-out and setting: then `COc1ccc2nc3cc(Cl)ccc3c(Nc3ccc(O)c(CN4CCN(C)CC4)c3)c2c1`, with 66.6% (inactive).
`Cc1c(C(=O)OCC(=O)Nc2cccc(S(N)(=O)=O)c2)oc2c1ccc1ccccc12`: the inhibition is 104% (inactive).
Still for that read-out and setting: the value for `CC(=O)Nc1cc(-c2ccccc2F)cn2c(-c3ccccc3)cnc12` was 106% (inactive); that for `CC(C)(c1ccccc1)c1ccc(OCC(O)CNC2CCN(Cc3ccccc3)CC2)cc1` (stereo not given) was 31.5% (inactive).
Same read-out and setting: the value for `Cc1ccc(-c2nn(-c3ccccc3)cc2CNCc2ccccc2)cc1` was 99.5% (inactive).
Regarding `COc1cccc2c1C(=O)c1ccc3ccccc3c1C2=O`, the inhibition is 18.2% (inactive).
The same measure, in the same setting: the value for `CCOc1ccc2nc(N(CCCN(C)C)C(=O)c3ccc(S(=O)(=O)N4CCc5ccccc5C4)cc3)sc2c1` was 37% (inactive); that for `Cc1cc(C(=O)CSc2nc3ccccc3[nH]2)c(C)n1CC1CCCO1` (stereo not given) was 89.3% (inactive).
The same measure, in the same setting: then `CN(C)CCC(=O)c1ccc2c(c1)OCO2`, with 103% (inactive).
Turning to `Cn1c(=O)c(NC2CCCCC2)c2c3c(cccc31)C(=O)c1ccccc1-2`, the inhibition is -4.68% (inactive).
Still for that read-out and setting: the value for `O=C(COC(=O)[C@H](Cc1c[nH]c2ccccc12)NC(=O)c1ccc(Cl)cc1)Nc1ccc2c(c1)OCO2` was 108% (inactive); that for `CCOC(=O)c1c(CSc2ccccc2)n(C)c2cc(Br)c(O)c(CN(C)C)c12` was 20.5% (inactive); that for `O=C(Nc1nc2ccccc2n1CCN1CCOCC1)c1ccc(COc2ccccc2Br)o1` was 102% (inactive).
As for `Cc1ccc(-c2nn(-c3ccccc3)cc2CN(Cc2ccccc2)C(=O)c2ccco2)o1`, the inhibition is 105% (inactive).
The same measure, in the same setting: then `Cc1cncn1CCc1nc2c3ccccc3nc(SCC(=O)Nc3cccc(Cl)c3)n2n1`, with 104% (inactive); and `CC(Nc1nc(N2CCNCC2)nc2ccccc12)c1ccccc1` (stereo not given), with 104% (inactive); and `Oc1ccccc1Nc1nc(NCc2ccccc2)c2ccccc2n1`, with 90.6% (inactive).
Same read-out and setting: the value for `c1ccc(CCNc2ccnc3cc4ccccc4cc23)cc1` was 90.2% (inactive).
For `CCc1ccc2nc(N(CCCN(C)C)C(=O)c3ccc(S(=O)(=O)N4CCc5ccccc5C4)cc3)sc2c1`, the inhibition is 81.8% (inactive).
Same read-out and setting: the value for `COc1ccc2[nH]c3c(N4CCc5ccccc5C4)ncnc3c2c1` was 89.2% (inactive).
In the case of `COC(=O)c1ccc(CCc2cc(O)c(Br)cc2O)cc1`, the inhibition was 108% (inactive).
On the same count and under the same terms, then `Cc1ccc2nc(-c3ccc(NC(=S)NC4CC(C)(C)NC(C)(C)C4)cc3)sc2c1`, with 5.48% (inactive).
Same read-out and setting: then `CCOC(=O)c1c(NC(C)=O)sc2c(OCC(O)CN(CC)CC)c(Br)ccc12` (stereo not given), with 88.2% (inactive); and `Nc1c(C(=O)NCc2ccc(F)cc2)c2nc3ccccc3nc2n1CCCN1CCOCC1`, with 72.5% (inactive).
Still for that read-out and setting: then `c1ccc(COc2ccc(-c3cc4nc(NCCCn5ccnc5)ccn4n3)cc2)cc1`, with 106% (inactive).
In the case of `O=C(CCN1CCc2ccccc2CC1)c1ccc2c(c1)OCCO2`, the inhibition was 73.6% (inactive).
The same measure, in the same setting: then `O=C1ON=C(c2ccccc2)/C1=C/c1ccc(-c2ccccc2[N+](=O)[O-])o1`, with 102% (inactive); and `OC1(c2cccc(C(F)(F)F)c2)CCN(c2ncnc3c2[nH]c2ccc(F)cc23)CC1`, with 107% (inactive); and `COC(=O)c1c(NC(=O)c2ccc(C(=O)c3ccccc3)cc2)sc2c1CC(C)(C)NC2(C)C`, with 90.2% (inactive).
On to `O=C(CCN1CCc2ccccc2C(c2ccccc2)C1)c1ccc2c(c1)OCCO2` (stereo not given), for which the inhibition is 101% (inactive).
Regarding `COc1ccc(N(CC(=O)NCCSc2ccccn2)S(=O)(=O)c2ccccc2)c(OC)c1`, the inhibition is -7.92% (inactive).
Same read-out and setting: then `CCOC(=O)c1cnc2ccc(OCC)cc2c1N(C)Cc1ccccc1`, with 69.7% (inactive); and `COc1ccc(N2C(=O)CC(Sc3n[nH]c(-c4ccccc4)n3)C2=O)cc1` (stereo not given), with 95.2% (inactive).
The same measure, in the same setting: the value for `CN(C)CCNC(=O)c1ccc(-c2cn3c(-c4ccc(Oc5ccccc5)cc4)cnc3cn2)cc1` was 81.6% (inactive); that for `CCN(CC)CCOC(=O)c1ccc(N/C=C(/C#N)c2nc(-c3ccc(OC)cc3)cs2)cc1` was 56.9% (inactive); that for `CCc1nc2ccc(C(=O)NC3CCN(Cc4ccccc4)CC3)cn2c1N(C)Cc1cc2ccccc2s1` was 101% (inactive).
For the compound `CCCNC(=O)Cn1sc2nc(C)cc(C)c2c1=O`, the inhibition is 97.3% (inactive).
Still for that read-out and setting: then `CCOc1ccc(-c2cc(C(=O)NCCCn3ccnc3)c3cc(Br)ccc3n2)cc1`, with 25.6% (inactive); and `Cc1ccc2c3c(cccc13)-c1ccccc1C2=O`, with 4.2% (inactive); and `CN1CCN(c2ccc(NC(=O)c3ccc(-c4ccc(Cl)cc4)o3)cc2)CC1`, with 97.9% (inactive).
On the same count and under the same terms, the value for `Cn1sc(=O)c2cc(S(=O)(=O)NC3CC3)ccc21` was 103% (inactive); that for `O=[N+]([O-])c1ccc2nc(/C=C/c3ccc(Cl)cc3)[nH]c2c1` was 98.6% (inactive); that for `COc1cccc(-c2cnc3c(NC=O)cc(-c4ccccc4)cn23)c1` was 101% (inactive).
In the case of `CCOC(=O)c1nnc(-c2ccccc2)nc1Sc1ccccc1Cl`, the inhibition was 66.7% (inactive).
The same measure, in the same setting: the value for `COc1ccc(C2CC(c3cccs3)=NN2c2nc(C)c(C(C)=O)s2)cc1OC` (stereo not given) was 2.08% (inactive).
Still for that read-out and setting: the value for `CCc1ccc(CNC(=O)C2CCCN(c3nnc(C)c4c(C)n(-c5ccccc5)nc34)C2)cc1` (stereo not given) was 97.2% (inactive); that for `N#Cc1ccc(NC(=O)Nc2ccc(Oc3ccc(NC(=O)Nc4ccc(C#N)cc4)cc3)cc2)cc1` was 33.8% (inactive).
`O=C1OC(c2ccccc2)(c2cc(Br)ccc2O)c2ccccc21` (stereo not given): the inhibition was 109% (inactive).
On the same count and under the same terms, the value for `Cn1cncc1C#Cc1c(-c2ccc(S(C)(=O)=O)cc2)sc2ccccc12` was 102% (inactive).
The same measure, in the same setting: then `CCOC(=O)c1ccc(NC(=O)c2ccc(C)c(S(=O)(=O)N3CCOCC3)c2)cc1`, with 102% (inactive); and `Oc1ccccc1Nc1nc(NCc2ccco2)c2ccccc2n1`, with 107% (inactive).
Still for that read-out and setting: the value for `C=C(C)COc1ccc(-c2n[nH]c(C)c2-c2ccc(OC)cc2)c(O)c1` was 106% (inactive).
`O=CNc1cc(-c2ccsc2)cn2c(-c3ccccc3)cnc12`: the inhibition is 105% (inactive).
Still for that read-out and setting: the value for `Brc1ccccc1C1Nc2cccc3cccc(c23)N1` was -2.38% (inactive); that for `O=C(Nc1nc2ccc(SC(F)F)cc2s1)c1ccc(NS(=O)(=O)c2ccc(F)c(F)c2)cc1` was 105% (inactive).
Same read-out and setting: the value for `O=[N+]([O-])c1cccc(-c2cc(-c3cc(Br)ccc3O)[nH]n2)c1` was 67.8% (inactive); that for `CCOc1ccc(Cl)cc1-c1cc(C(=O)NCc2cccs2)[nH]n1` was 79.8% (inactive); that for `CN(c1ccccc1)S(=O)(=O)c1cccc(C(=O)NCCc2c[nH]c3ccccc23)c1` was 42.1% (inactive).
The same measure, in the same setting: the value for `CCCCNc1c(-c2ccc(OC)c(SC3CCCCC3)c2)nc2ccc(C)cn12` was 103% (inactive).
Take `Cc1cc(F)ccc1S(=O)(=O)Nc1ccccc1C(=O)Nc1ccccc1-c1nc2ccccc2[nH]1`: the inhibition was 106% (inactive).
Still for that read-out and setting: then `CN1CCN(c2cc(-c3ccccc3)nc3cc(-c4ccc(F)cc4)nn23)CC1`, with 61.3% (inactive); and `CCOC(=O)c1c(NC(=O)CSc2nnnn2-c2ccccc2OCC)sc2c1CC(C)(C)NC2(C)C`, with 84.6% (inactive); and `CCOc1cc(CNCCc2ccc(S(N)(=O)=O)cc2)ccc1OCc1ccc(Cl)cc1`, with 48.5% (inactive).
Regarding `CCN1CCN(Cc2ccc(NC(=O)c3cc(NC(=O)C(=O)c4c[nH]c5ccccc45)cc(OC)c3)cc2C(F)(F)F)CC1`, the inhibition is 81.8% (inactive).
Turning to `O=c1c2ccccc2sn1-c1ccc(Cl)cc1`, the inhibition is 103% (inactive).
Take `O=c1c2cc(F)ccc2sn1-c1ccccc1Cl`: the inhibition was 95.2% (inactive).
On the same count and under the same terms, the value for `COc1ccc(Cl)c(-c2cc(C(=O)NCc3ccc(C(F)(F)F)cc3)[nH]n2)c1` was 103% (inactive); that for `COc1cc2c(cc1OC)C(c1ccc(-c3ccc(Cl)c(Cl)c3)o1)=NCC2` was 88.4% (inactive).
Consider `Cc1ccc(C(=O)N/C(=C\c2ccc(-c3ccc(Br)cc3)o2)C(=O)NCCCN(C)C)cc1`, for which the inhibition is -10.6% (inactive).
The same measure, in the same setting: the value for `CCCCN(CCCC)c1nc(-c2ccncc2)nc2ccccc12` was 85.6% (inactive); that for `COc1ccc(-c2cc(NC=O)c3ncc(-c4ccccc4)n3c2)cc1OC` was 89.8% (inactive); that for `COCCNc1nc(NCc2cccc(OC)c2)c2sc(-c3ccccc3)cc2n1` was 105% (inactive).
